Measured values from patent US20130202686A1 (priority 2010, published 2013).
Counter-ions that a name gives are not always drawn.

Assays:
[1] = rat, in vivo, sc, 5 mg/kg, 4 h
Experimental: For the bupivacaine hydrochloride liposome prepared in Preparation Example 12 and bupivacaine hydrochloride used alone, a drug dynamics test was conducted. Subcutaneous administration into a back part of a rat was conducted in a dose, in terms of the amount of bupivacaine hydrochloride, as set forth in Table 7. After lapses of 1, 24, 72, 120, and 168 hours from the administration of the bupivacaine hydrochloride liposome composition, and after lapses of 0.5, 4, and 24 hours from the administration of the bupivacaine hydrochloride used alone, back region subcutaneous tissue in the administration site was sampled and subjected to a homogenizing treatment. Subsequently, the homogenized solution was treated, the resultant sample solution was subjected to high performance liquid chromatography determination (UV-visible absorptiometer; measurement wavelength 210 nm), and the concentration of bupivacaine hydrochloride remaining in the back region subcutaneous tissue in the administration site was determined. The retention rate of bupivacaine hydrochloride (used alone) in the administration site was lowered to below 1% in four hours after the administration. […] On the other hand, the bupivacaine hydrochloride liposome gave a profile of sustained release from the administration site, and about 35% of bupivacaine hydrochloride remained on the seventh day from the administration.

[2] = Donepezil Liposome Drug Dynamics 2 (plasma concentration of donepezil hydrochloride); details: rat, SC 5 mg/kg
Experimental: (Em) of 385 nm was quantified by high performance liquid chromatography using a fluorophotometer.
Furthermore, for comparison, donepezil used alone was administered subcutaneously into a back part of a rat in a dose of 5 mg/kg. For the donepezil used alone, blood was sampled from a tail vein after lapses of 0.5, 1, 5, 10, 30, 120, 480, 1440, and 2880 minutes from the administration. For the liposome compositions, on the other hand, blood was sampled from a tail vein after lapses of 1, 3, 4, 8, 24, 48, 72, 96, 120, 144, 168, 192, 216, 264, 288, 312, and 336 hours from the administration.

| Compound | retention rate of bupivacaine hydrochloride in the administration site [1] | concentration in blood after 48 hours [2] | time of maximum concentration in blood [2] [h] |
| --- | --- | --- | --- |
| CCCCN1CCCCC1C(=O)Nc1c(C)cccc1C (stereo not drawn) [bupivacaine hydrochloride, Bupivacaine hydrochloride] | below 1% |  |  |
| COc1cc2c(cc1OC)C(=O)C(CC1CCN(Cc3ccccc3)CC1)C2 (stereo not drawn) [donepezil hydrochloride, Donepezil hydrochloride] |  | below the detection limit | 0.5 |
